14 molecules from ChEMBL document CHEMBL1201862, “PubChem BioAssay data set” (2004) can be followed below.

Holding throughout (test): inhibition of tumour cell growth, NCI panel, 48 h
Experiment [1] concerns A498.
In experiment [2] the test system is ACHN.
Experiment [3] has as its system COLO 205.
Experiment [4] concerns HCT-116.
For experiment [5], the system named is HOP-62.
The subject of experiment [6] is M14.
Experiment [7] deals with Malme-3M.
Experiment [8] relates to NCI-H226.
Experiment [9] relates to NCI-H23.
Experiment [10] concerns OVCAR-3.
Experiment [11] relates to OVCAR-4.
In experiment [12] the test system is OVCAR-8.
Experiment [13] concerns SW-620.
In experiment [14] the test system is U-251.
For experiment [15], the system named is UACC-257.
The subject of experiment [16] is SR.

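Interpolation was linear, between the two tested concentrations surrounding the appropriate level; five concentrations were tested over 48 hours in 96-well plates. GI50: concentration for 50% inhibition of growth.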 The source made the active and inactive calls. Rule as the data show it: active = GI50 up to about 1.1 µM and inactive = higher.

For `c1cc2c(cc1C1OCC3C(c4ccc5c(c4)OCO5)OCC13)OCO2` (centres undefined), the GI50 was 55.3 µM (inactive) in experiment [1]; 80.7 µM (inactive) in [2]; 67.8 µM (inactive) in [3]; 51.5 µM (inactive) in experiment [4]; > 100 µM (inactive) in [5]; 66.8 µM (inactive) in experiment [6]. Moreover, the GI50 is 61.9 µM (inactive) in experiment [7]; 58.3 µM (inactive) in experiment [8]; 38.5 µM (inactive) in experiment [9]; 84.1 µM (inactive) in [10]; > 100 µM (inactive) in [11]; 85.3 µM (inactive) in [12]. The GI50 in experiment [13] is > 100 µM (inactive); in experiment [14] it was 83 µM (inactive); in experiment [15] it was 53.8 µM (inactive).
Regarding `Brc1c2nc3ccccc3nc2n2ccc3ccccc3c12`, the GI50 in [2], in [3], in [4], in [5], in experiment [6] and in [7] was > 100 µM (inactive) throughout. Besides, the GI50 in [9], in experiment [10], in experiment [11], in experiment [12], in [16] and in experiment [13] was > 100 µM (inactive) throughout. The GI50 in experiment [14] and in experiment [15] was > 100 µM (inactive) in each case.
Consider `COC(=O)CC(c1ccccc1)C1(c2ccccc2)SCCS1` (centres undefined), for which the GI50 in experiment [2] is > 290 µM (inactive); in experiment [3], > 290 µM (inactive); in experiment [4] it was 101 µM (inactive); in experiment [5] it was 266 µM (inactive); in [7] it was > 290 µM (inactive); in [8] it was > 290 µM (inactive). Besides, the GI50 is 130 µM (inactive) in experiment [9]; 55.1 µM (inactive) in experiment [10]; 169 µM (inactive) in experiment [12]; 54.8 µM (inactive) in experiment [16]; 232 µM (inactive) in experiment [13]; > 290 µM (inactive) in [14]. The GI50 in experiment [15] was > 290 µM (inactive).
`Cn1nc(N)nc1N=S(C)(C)=N`: the GI50 in experiment [1], in experiment [2], in experiment [3], in [5], in [6] and in [7] was > 100 µM (inactive) throughout. Further, the GI50 in [8] was 72.4 µM (inactive); in experiment [9], > 100 µM (inactive); in [10] it was > 100 µM (inactive); in experiment [11] it was > 100 µM (inactive); in experiment [12], > 100 µM (inactive); in [13] it was > 100 µM (inactive). Besides, the GI50 in [14] and in [15] was > 100 µM (inactive) throughout.
Regarding `CCCCN(CCCC)C(=O)/C(CC(=O)c1cccc2ccccc12)=N\NC(=O)c1cc2ccccc2cc1O`, the GI50 in [2] was 16.9 µM (inactive); in experiment [3], 23 µM (inactive); in experiment [4], 13.1 µM (inactive); in [5] it was 20 µM (inactive); in [6], 21.9 µM (inactive); in [7], 16.9 µM (inactive). Moreover, the GI50 in experiment [8] is 19.9 µM (inactive); in experiment [9], 19.9 µM (inactive); in experiment [10] it was 14.4 µM (inactive); in [11], 25.6 µM (inactive); in experiment [12], 16.4 µM (inactive); in experiment [13], 32 µM (inactive). The GI50 in [14] is 19.3 µM (inactive); in [15], 21.1 µM (inactive).
With `O=C1CCCCCCCCCCC(=O)C2CCOCCOCCOCCC1Cc1cccc(n1)C2`, the GI50 in experiment [1] is 82.8 µM (inactive); in [2], 69.8 µM (inactive); in [3], 93.3 µM (inactive); in experiment [4] it was 88.7 µM (inactive); in experiment [5] it was > 100 µM (inactive); in experiment [6], 67.6 µM (inactive). The GI50 was > 100 µM (inactive) in [7]; 60 µM (inactive) in experiment [8]; > 100 µM (inactive) in experiment [9]; 40.6 µM (inactive) in experiment [10]; 51.5 µM (inactive) in [11]; 59.3 µM (inactive) in experiment [12]. Also, the GI50 in experiment [13], in experiment [14] and in experiment [15] was > 100 µM (inactive) each time.
In the case of `O=C1C(=O)N(c2cc(Cl)ccc2Cl)C(=O)C(=O)C1c1nc2ccccc2s1`, the GI50 in experiment [1] was > 100 µM (inactive); in [2], > 100 µM (inactive); in [3] it was > 100 µM (inactive); in [4], 66.5 µM (inactive); in [5], > 100 µM (inactive); in experiment [6], > 100 µM (inactive). For the same molecule, the GI50 was > 100 µM (inactive) in experiment [7]; 34.4 µM (inactive) in [8]; > 100 µM (inactive) in [9]; > 100 µM (inactive) in experiment [10]; > 100 µM (inactive) in experiment [11]; > 100 µM (inactive) in [12]. Besides, the GI50 was > 100 µM (inactive) in experiment [13], > 100 µM (inactive) in experiment [14] and 98.2 µM (inactive) in [15].
Turning to `COC(=O)C(CC(=O)c1c[nH]c2ccccc12)c1c[nH]c2ccccc12` (centres undefined), the GI50 is 20.3 µM (inactive) in [1]; 16.3 µM (inactive) in experiment [2]; 15.8 µM (inactive) in experiment [4]; 21.5 µM (inactive) in experiment [5]; 18.2 µM (inactive) in [6]; 19.1 µM (inactive) in experiment [7]. Further, the GI50 in [8] is 22 µM (inactive); in [9], 16.7 µM (inactive); in experiment [10], > 10 µM (inactive); in experiment [11] it was 17.1 µM (inactive); in experiment [12], 22.6 µM (inactive); in [13], 22.8 µM (inactive). Further, the figures for the GI50 in [14] and in experiment [15] were 20.8 µM (inactive) and 15.4 µM (inactive), respectively.
Regarding `COc1cc2c[n+](C)c3c4cc(OC)c(OC(C)C)cc4ccc3c2cc1OC`, the GI50 is > 100 µM (inactive) in [2]; 10.5 µM (inactive) in experiment [3]; > 100 µM (inactive) in experiment [4]; > 100 µM (inactive) in experiment [5]; 84.9 µM (inactive) in experiment [6]; 29.4 µM (inactive) in experiment [7]. For the same molecule, the GI50 in experiment [8] was 98.4 µM (inactive); in experiment [9], 48.6 µM (inactive); in experiment [10], 10.5 µM (inactive); in experiment [11], 62.7 µM (inactive); in experiment [12], 35.4 µM (inactive); in experiment [16], 43.2 µM (inactive). The GI50 is 36.3 µM (inactive) in [13], 29.6 µM (inactive) in [14] and 29.4 µM (inactive) in [15].
For the molecule `CN(C)CCCOc1ccc(/C=C2/CCC/C(=C/c3ccc(OCCCN(C)C)cc3)C2=O)cc1`, the GI50 is 1.85 µM (inactive) in experiment [1]; 1.99 µM (inactive) in experiment [2]; 1.73 µM (inactive) in [3]; 1.37 µM (inactive) in experiment [4]; 1.82 µM (inactive) in [5]; 2.11 µM (inactive) in experiment [6]. For the same molecule, the GI50 in experiment [7] was 1.78 µM (inactive); in [9], 1.74 µM (inactive); in experiment [10] it was 2.26 µM (inactive); in experiment [11] it was 2.31 µM (inactive); in experiment [12], 3.08 µM (inactive); in experiment [13] it was 1.77 µM (inactive). In addition, the GI50 in experiment [14] was 0.918 µM (active); in experiment [15], 2.03 µM (inactive).
For the molecule `Cc1ccccc1C(C#N)C(=O)C(=O)Nc1cccc(Cl)c1` (centres undefined), the GI50 in experiment [1] was > 100 µM (inactive); in [2], > 100 µM (inactive); in experiment [3] it was 58.3 µM (inactive); in experiment [4], > 100 µM (inactive); in experiment [5], > 100 µM (inactive); in [6], > 100 µM (inactive). For the same molecule, the GI50 in [7] was > 100 µM (inactive); in experiment [8], > 100 µM (inactive); in [9] it was > 100 µM (inactive); in experiment [10], > 100 µM (inactive); in experiment [12], > 100 µM (inactive); in experiment [13] it was 15.7 µM (inactive). Further, the GI50 in experiment [14] and in [15] was > 100 µM (inactive) each time.
Regarding `CC1(C)OC(=O)C(c2cccs2)C(=O)O1`, the GI50 in [2], in [3], in [4], in experiment [5], in [6] and in experiment [7] was > 100 µM (inactive) each time. Further, the GI50 in [8], in experiment [9], in experiment [10], in [11], in experiment [12] and in experiment [16] was > 100 µM (inactive) each time. The GI50 in [13], in experiment [14] and in [15] was > 100 µM (inactive) throughout.
Turning to `COC1[C@@H](OC(C)=O)[C@@H](NC(=O)C(Cl)(Cl)Cl)C(I)[C@@H](N2C(=O)c3ccccc3C2=O)[C@H]1OC` (some centres undefined), the GI50 in experiment [1] is 48.6 µM (inactive); in [2], > 100 µM (inactive); in experiment [3], > 100 µM (inactive); in experiment [4] it was > 100 µM (inactive); in experiment [5], > 100 µM (inactive); in experiment [6], > 100 µM (inactive). In addition, the GI50 is > 100 µM (inactive) in experiment [8]; > 100 µM (inactive) in experiment [9]; 72.3 µM (inactive) in [11]; > 100 µM (inactive) in experiment [12]; > 100 µM (inactive) in experiment [16]; > 100 µM (inactive) in experiment [13]. In addition, the GI50 in experiment [14] and in experiment [15] was > 100 µM (inactive) each time.
With `CN(c1n[n+]2c(-c3ccccc3)csc2s1)c1n[n+]2c(-c3ccccc3)csc2s1`, the GI50 in experiment [2] is > 100 µM (inactive); in experiment [3], 46.7 µM (inactive); in experiment [4], > 100 µM (inactive); in experiment [6], > 100 µM (inactive); in experiment [7] it was 26.3 µM (inactive); in experiment [8] it was > 100 µM (inactive). Further, the GI50 in [9] is > 100 µM (inactive); in [10] it was > 100 µM (inactive); in [11], > 100 µM (inactive); in experiment [12] it was > 100 µM (inactive); in [16], 61.5 µM (inactive); in [13], > 100 µM (inactive). Besides, the GI50 in [15] was > 100 µM (inactive).
